Reference: patent US7115279B2, “Pharmaceutical compositions of cholesteryl ester transfer protein inhibitors” (priority 2000, dated 2006)

Tests used:
Type in all cases: physicochemical
[1] = in vitro dissolution test, microcentrifuge method, MFDS (Example 5, Drug 1 dispersions); settings: model-fasted duodenal solution (MFDS), pH 6.5, maximum concentration of Drug 1 in solution during the 90-minute test, TCmax 100 or 500 μg/mL
Description: The spray-dried dispersions of Examples 1 to 4 were evaluated in in vitro dissolution tests using a microcentrifuge method. In this method, 1 mg of the spray-dried dispersions was added to a 1.5-mL microcentrifuge tube. The tube was placed in a 37° C. sonicating bath, and 1 mL of a model-fasted duodenal solution (MFDS) (comprising sodium taurocholate/1-palmitoyl-2-oleoyl-sn-glycero-3-phosphocholine (NaTC-POPC) in phosphate-buffered saline (PBS) at pH 6.5 and 290 mOsm/kg) was added. The samples were quickly mixed using a combination of vortex mixer and sonication for about 90 seconds. The theoretical maximum concentration (“TCmax”) of drug for Examples 1–3 if all the drug dissolved was 100 μg/mL, while for Example 4 the TCmax was 500 μg/mL. The samples were centrifuged at 13,000 G at 37° C. for 1 minute. The resulting supernatant solution was then sampled (100 μL) and diluted with 200 μL methanol and then analyzed by HPLC. The tubes were then mixed on the vortex mixer and allowed to stand undisturbed at 37° C. until the next sample. Samples were collected at 3, 10, 30, 60, and 90 minutes and for Examples 1 and 2 at 1200 minutes.
For Control 1, an in vitro test was performed using the procedure described above, except that 0.18 mg of crystalline Drug 1 was placed in a microcentrifuge tube and mixed with 1.8 mL of MFDS.

[2] = in vitro dissolution test, microcentrifuge method, PBS (Example 8, Drug 2 dispersions); settings: for Drug 2 Concentration / AUC: PBS pH 6.5, 37° C.; for Drug 2 Concentration: dose about 1000 μg/mL
Description: The spray-dried dispersions of Examples 6 and 7 were evaluated in an in vitro dissolution test using a microcentrifuge method. In this test, the spray-dried dispersion was added to a microcentrifuge tube for a Drug 2 dose of about 1000 μg/mL (7.2 mg for Example 6, 18 mg for Example 7). The tube was placed in a 37° C. sonicating bath, and 1.8 mL phosphate buffered saline (PBS) at pH 6.5 and 290 mOsm/kg was added. The samples were quickly mixed using a vortex mixer for about 60 seconds. The samples were centrifuged at 13,000 G at 37° C. for 1 minute. The resulting supernatant solution was then sampled and diluted 1:6 (by volume) with methanol and then analyzed by high-performance liquid chromatography (HPLC). The contents of the tubes were mixed on the vortex mixer and allowed to stand undisturbed at 37° C. until the next sample was taken. Samples were collected at 4, 10, 20, 40, 90, and 1200 minutes. […]

[3] = in vitro dissolution test, microcentrifuge method, PBS (Example 29, Drug 3 dispersions); settings: phosphate-buffered saline, pH 6.5, TCmax 400 μg/mL, read-out: Cmax, 90
Description: The spray-dried dispersions of Examples 21–28 were evaluated in an in vitro dissolution test using a microcentrifuge method. In this method, 7.2 mg of each SDD was added to a 2-mL microcentrifuge tube. The tube was placed in a 37° C. sonicating bath, and 1.8 mL of a phosphate-buffered saline (PBS) solution at pH 6.5 and 290 mOsm/kg was added, resulting in a TCmax of 400 μg/mL. The samples were quickly mixed using a combination of vortex mixer and sonication for about 90 seconds. The samples were centrifuged at 13,000 G at 37° C. for 1 minute. The resulting supernatant solution was then sampled and diluted 1:6 (by volume) with methanol and then analyzed by HPLC. The tubes were then mixed on the vortex mixer and allowed to stand undisturbed at 37° C. until the next sample. Samples were collected at 4, 10, 20, 40, 90 and 1200 minutes.
For Control 5, an in vitro dissolution test was performed using the procedure described above, except that 0.72 mg of non-crystalline Drug 3 was placed in a microcentrifuge tube and mixed with 1.8 mL of PBS.

[4] = in vitro dissolution test, microcentrifuge method, PBS (Example 42, Drugs 4-9 dispersions); settings: PBS pH 6.5, 37° C.; for Cmax: phosphate-buffered saline, read-out: Cmax, 90
Description: In this method, 15 mg of each SDD was added to a 2-mL microcentrifuge tube. The tube was placed in a 37° C. sonicating bath, and 1.5 mL of a phosphate-buffered saline (PBS) solution at pH 6.5 and 290 mOsm/kg) was added, resulting in a TCmax of 1000 μg/mL. The samples were quickly mixed using a combination of vortex mixer and sonication for about 90 seconds. The samples were centrifuged at 13,000 G at 37° C. for 1 minute. The resulting supernatant solution was then sampled and diluted 1:6 (by volume) with methanol and then analyzed by HPLC. The tubes were then mixed on the vortex mixer and allowed to stand undisturbed at 37° C. until the next sample. Samples were collected at 4, 10, 20, 40, and 90 minutes.
For Controls 6–11, an in vitro dissolution test was performed using the procedure described above, except that 1.5 mg of non-crystalline drug was placed in a microcentrifuge tube and mixed with 1.5 mL of PBS.

[5] = in vitro dissolution test, receptor solution MFDS (Example 17, Drug 2 dispersions); settings: TCmax 400 or 100 μg/mL, read-out: Cmax, 90
Description: The spray-dried dispersions of Examples 6 and 7 were evaluated in an in vitro dissolution test using a microcentrifuge method. In this test, the spray-dried dispersion was added to a microcentrifuge tube for a Drug 2 dose of about 1000 μg/mL (7.2 mg for Example 6, 18 mg for Example 7). The tube was placed in a 37° C. sonicating bath, and 1.8 mL phosphate buffered saline (PBS) at pH 6.5 and 290 mOsm/kg was added. The samples were quickly mixed using a vortex mixer for about 60 seconds. The samples were centrifuged at 13,000 G at 37° C. for 1 minute. The resulting supernatant solution was then sampled and diluted 1:6 (by volume) with methanol and then analyzed by high-performance liquid chromatography (HPLC). The contents of the tubes were mixed on the vortex mixer and allowed to stand undisturbed at 37° C. until the next sample was taken. Samples were collected at 4, 10, 20, 40, 90, and 1200 minutes.
The dispersions of Examples 9–16 were also evaluated in an in vitro dissolution test using receptor solutions of MFDS using the procedures outlined in Example 8.
For Control 3, an in vitro dissolution test was performed using the procedure described above except that 0.72 mg of crystalline Drug 2 was used.

## COC(=O)N(Cc1cc(C(F)(F)F)cc(C(F)(F)F)c1)[C@@H]1C[C@H](C2CC2)N(C(=O)OC(C)C)c2ccc(C(F)(F)F)cc21 [Control 1, [2R,4R] 4-[(3,5-bis-trifluoromethyl-benzyl)-methoxycarbonyl-amino]-2-cyclopropyl-6-trifluoromethyl-3,4-dihydro-2H-quinoline-1-carboxylic acid isopropyl ester]
[1]
  Cmax at 100 μg/mL: 900 ng/mL

## CCOC(=O)N1c2ccc(C(F)(F)F)cc2[C@@H](N(Cc2cc(C(F)(F)F)cc(C(F)(F)F)c2)C(=O)OC)C[C@H]1CC [Control 2, [2R,4S] 4-[(3,5-bis-trifluoromethyl-benzyl)-methoxycarbonyl-amino]-2-ethyl-6-trifluoromethyl-3,4-dihydro-2H-quinoline-1-carboxylic acid ethyl ester]
[2]; time 0 min
  Drug 2 Concentration: 0 µg/mL
  AUC: 0 µg·min/mL
[2]; time 4 min
  Drug 2 Concentration: 6 µg/mL
  AUC: 12 µg·min/mL
[2]; time 10 min
  Drug 2 Concentration: <1 µg/mL
  AUC: 30 µg·min/mL
[2]; time 20 min
  Drug 2 Concentration: <1 µg/mL
  AUC: 30 µg·min/mL
[2]; time 40 min
  Drug 2 Concentration: 3 µg/mL
  AUC: 60 µg·min/mL
[2]; time 90 min
  Drug 2 Concentration: <1 µg/mL
  AUC: 135 µg·min/mL
[2]; time 1200 min
  Drug 2 Concentration: <1 µg/mL
  AUC: 135 µg·min/mL
[2]; area under the aqueous concentration versus time curve after 90 minutes, PBS
  AUC90: 135 µg·min/mL
[2]; phosphate buffered saline (PBS), pH 6.5, maximum concentration of Drug 2 in solution during the first 90 minutes, PBS
  Cmax at 1000 μg/mL: 6000 ng/mL

## CCCOC(=O)N1c2ccc(C(F)(F)F)cc2[C@@H](N(Cc2cc(C(F)(F)F)cc(C(F)(F)F)c2)C(=O)OC)C[C@H]1CC [Control 5, [2R,4S] 4-[(3,5-bis-trifluoromethyl-benzyl)-methoxycarbonyl-amino]-2-ethyl-6-trifluoromethyl-3,4-dihydro-2H-quinoline-1-carboxylic acid propyl ester]
[3]
  Cmax: < 100 ng/mL

## CC[C@@H]1C[C@H](N(Cc2cc(C(F)(F)F)cc(C(F)(F)F)c2)C(C)=O)c2cc(C(F)(F)F)ccc2N1C(=O)OC(C)C [Control 9, [2R,4S] 4-[acetyl-(3,5-bis-trifluoromethyl-benzyl)-amino]-2-ethyl-6-trifluoromethyl-3,4-dihydro-2H-quinoline-1-carboxylic acid isopropyl ester]
[4]; TCmax 1000 μg/mL
  Cmax: < 1000 ng/mL

## CCOC(=O)N1c2cc3c(cc2[C@@H](N(Cc2cc(C(F)(F)F)cc(C(F)(F)F)c2)C(=O)OC)C[C@H]1C)CCC3 [Control 8, [2R,4S] 4-[(3,5-bis-trifluoromethyl-benzyl)-methoxycarbonyl-amino]-2-methyl-2,3,4,6,7,8-hexahydro-cyclopenta[g]quinoline-1-carboxylic acid ethyl ester]
[4]; Time 0 min
  AUC: 0 µg·min/mL
  Concentration: 0 ng/mL
[4]; TCmax 1000 μg/mL
  Cmax: < 1000 ng/mL

## COC(=O)N(Cc1cc(C(F)(F)F)cc(C(F)(F)F)c1)[C@H]1C[C@@H](C2CC2)N(C(=O)OC(C)C)c2ccc(C(F)(F)F)cc21 [Control 10, [2S,4S] 4-[(3,5-bis-trifluoromethyl-benzyl)-methoxycarbonyl-amino]-2-cyclopropyl-6-trifluoromethyl-3,4-dihydro-2H-quinoline-1-carboxylic acid isopropyl ester]
[4]; TCmax 1000 μg/mL
  Cmax: < 1000 ng/mL

## CCOC(=O)N1c2ccc(C(F)(F)F)cc2[C@@H](N(Cc2cc(C(F)(F)F)cc(C(F)(F)F)c2)C(=O)OC)C[C@H]1CC [Control 3, [2R,4S] 4-[(3,5-bis-trifluoromethyl-benzyl)-methoxycarbonyl-amino]-2-ethyl-6-trifluoromethyl-3,4-dihydro-2H-quinoline-1-carboxylic acid ethyl ester]
[5]
  Cmax: < 1000 ng/mL

## CCOC(=O)N1c2cc(OC)c(OC)cc2[C@@H](N(Cc2cc(C(F)(F)F)cc(C(F)(F)F)c2)C(=O)OC)C[C@H]1C [Control 6, [2R,4S] 4-[(3,5-bis-trifluoromethyl-benzyl)-methoxycarbonyl-amino]-6,7-dimethoxy-2-methyl-3,4-dihydro-2H-quinoline-1-carboxylic acid ethyl ester]
[4]; TCmax 1000 μg/mL
  Cmax: < 1000 ng/mL

## CCOC(=O)N1c2cc(CC)c(CC)cc2[C@@H](N(Cc2cc(C(F)(F)F)cc(C(F)(F)F)c2)C(=O)OC)C[C@H]1C [Control 7, [2R,4S] 4-[(3,5-bis-trifluoromethyl-benzyl)-methoxycarbonyl-amino]-6,7-diethyl-2-methyl-3,4-dihydro-2H-quinoline-1-carboxylic acid ethyl ester]
[4]; TCmax 1000 μg/mL
  Cmax: < 1000 ng/mL

## CC1(C)Cc2nc(C3CCCC3)c([C@@H](F)c3ccc(C(F)(F)F)cc3)c(-c3ccc(F)cc3)c2[C@@H](O)C1 [Control 11, [3S,5S] 2-cyclopentyl-4-(4-fluoro-phenyl)-3-[fluoro-(4-trifluoromethyl-phenyl)-methyl]-7,7-dimethyl-5,6,7,8-tetrahydro-quinolin-5-ol]
[4]; TCmax 1000 μg/mL
  Cmax, 90: <1000 ng/mL
